Assay results from patent US20090018111A1, “Novel Antimicrobial Medicament” (priority 2004, published 2009).
Where two headings read alike, the source gives them in different places.

Legend:
Assay in all cases: Sensitivity test (agar dilution)
E. cloacae GN7471 = assay type: cell-based, Enterobacter cloacae; conditions: Enterobacter cloacae, E. cloacae GN7471
How it was run: (§1)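 Standard Japanese agar dilution method. Drugs alone or combined were serially halved in Mueller Hinton agar, inoculated with overnight (37° C) cultures at about 10^6 CFU/ml. Values are MICs.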

Str. pyogenes Cook = assay type: cell-based, Streptococcus pyogenes; conditions: Streptococcus pyogenes, Str. pyogenes Cook
How it was run: as §1

M. luteus ATCC9341 = assay type: cell-based, Micrococcus luteus; conditions: Micrococcus luteus, M. luteus ATCC9341
How it was run: as §1

P. aeruginosa IFO3451 = assay type: cell-based, Pseudomonas aeruginosa; conditions: Pseudomonas aeruginosa, P. aeruginosa IFO3451
How it was run: as §1

P. aeruginosa TL-2666 = assay type: cell-based, Pseudomonas aeruginosa; conditions: Pseudomonas aeruginosa, P. aeruginosa TL-2666
How it was run: as §1

P. aeruginosa TL-2667 = assay type: cell-based, Pseudomonas aeruginosa; conditions: Pseudomonas aeruginosa, P. aeruginosa TL-2667
How it was run: as §1

P. vulgaris GN7919 = assay type: cell-based, Proteus vulgaris; conditions: Proteus vulgaris, P. vulgaris GN7919
How it was run: as §1

[1] = test system: S. aureus SP-7928 (homo-MRSA); assay type: cell-based, Staphylococcus aureus; conditions: Staphylococcus aureus, MRSA, S. aureus SP-7928 (homo-MRSA)
How it was run: as §1

S. epidermidis IAM1296 = assay type: cell-based, Staphylococcus epidermidis; conditions: Staphylococcus epidermidis, S. epidermidis IAM1296
How it was run: as §1

K. pneumoniae ATCC10031 = assay type: cell-based, Klebsiella pneumoniae; conditions: Klebsiella pneumoniae, K. pneumoniae ATCC10031
How it was run: as §1

E. coli ML1410 = assay type: cell-based, Escherichia coli; conditions: Escherichia coli, E. coli ML1410
How it was run: as §1

E. coli NIHJ JC-2 = assay type: cell-based, Escherichia coli; conditions: Escherichia coli, E. coli NIHJ JC-2
How it was run: as §1

E. faecalis ATCC19433 = assay type: cell-based, Enterococcus faecalis; conditions: Enterococcus faecalis, E. faecalis ATCC19433
How it was run: as §1

[2] = GN7471, drug alone, read-out: MIC alone
[3] = Concomitant (DRPM:SM = 1:1), read-out: MIC concomitant
[4] = drug alone, read-out: MIC alone
[5] = ATCC9341, drug alone, read-out: MIC alone
[6] = IFO3451, drug alone, read-out: MIC alone
[7] = TL2666, drug alone, read-out: MIC alone
[8] = TL2667, drug alone, read-out: MIC alone
[9] = GN7919, drug alone, read-out: MIC alone
[10] = IAM1296, drug alone, read-out: MIC alone
[11] = ATCC10031, drug alone, read-out: MIC alone
[12] = ML1410, drug alone, read-out: MIC alone
[13] = NIHJJC2, drug alone, read-out: MIC alone
[14] = ATCC19433, drug alone, read-out: MIC alone
[15] = Concomitant (CAZ:SM = 1:1), read-out: MIC concomitant
[16] = Concomitant (PIPC:SM = 1:1), read-out: MIC concomitant

Row | Compound | MIC (E. cloacae GN7471; [2]) [µg/mL] | MIC (Str. pyogenes Cook; [4]) [µg/mL] | MIC (M. luteus ATCC9341; [5]) [µg/mL] | MIC (P. aeruginosa IFO3451; [6]) [µg/mL] | MIC (P. aeruginosa TL-2666; [7]) [µg/mL] | MIC (P. aeruginosa TL-2667; [8]) [µg/mL] | MIC (P. vulgaris GN7919; [9]) [µg/mL] | MIC [1, 4] [µg/mL] | MIC (S. epidermidis IAM1296; [10]) [µg/mL] | MIC (K. pneumoniae ATCC10031; [11]) [µg/mL] | MIC (E. coli ML1410; [12]) [µg/mL] | MIC (E. coli NIHJ JC-2; [13]) [µg/mL] | MIC (E. faecalis ATCC19433; [14]) [µg/mL] | further results
1 | C[C@@H](O)[C@H]1C(=O)N2C(C(=O)O)=C(S[C@@H]3CN[C@H](CNS(N)(=O)=O)C3)[C@H](C)[C@H]12 [DRPM, doripenem] | 0.031 | ≤ 0.002 | 0.031 | 0.5 | 1 | 2 | 0.125 | 32 | 0.5 | 0.016 | 0.031 | 0.016 | 4 | MIC (E. cloacae GN7471; GN7471, Concomitant (DRPM:SM = 1:1), read-out: MIC concomitant): 0.031 µg/mL; MIC (Str. pyogenes Cook; [3]): ≤ 0.002 µg/mL; MIC (M. luteus ATCC9341; ATCC9341, Concomitant (DRPM:SM = 1:1), read-out: MIC concomitant): ≤ 0.002 µg/mL; MIC (P. aeruginosa IFO3451; IFO3451, Concomitant (DRPM:SM = 1:1), read-out: MIC concomitant): 0.25 µg/mL; MIC (P. aeruginosa TL-2666; TL2666, Concomitant (DRPM:SM = 1:1), read-out: MIC concomitant): 1 µg/mL; MIC (P. aeruginosa TL-2667; TL2667, Concomitant (DRPM:SM = 1:1), read-out: MIC concomitant): 2 µg/mL; MIC (P. vulgaris GN7919; GN7919, Concomitant (DRPM:SM = 1:1), read-out: MIC concomitant): 0.063 µg/mL; MIC [1, 3]: 1 µg/mL; MIC (S. epidermidis IAM1296; IAM1296, Concomitant (DRPM:SM = 1:1), read-out: MIC concomitant): 0.031 µg/mL; MIC (K. pneumoniae ATCC10031; ATCC10031, Concomitant (DRPM:SM = 1:1), read-out: MIC concomitant): 0.008 µg/mL; MIC (E. coli ML1410; ML1410, Concomitant (DRPM:SM = 1:1), read-out: MIC concomitant): 0.031 µg/mL; MIC (E. coli NIHJ JC-2; NIHJJC2, Concomitant (DRPM:SM = 1:1), read-out: MIC concomitant): 0.016 µg/mL; MIC (E. faecalis ATCC19433; ATCC19433, Concomitant (DRPM:SM = 1:1), read-out: MIC concomitant): 1 µg/mL
2 | CC(C)(O/N=C(\C(=O)N[C@@H]1C(=O)N2C(C(=O)[O-])=C(C[n+]3ccccc3)CS[C@H]12)c1csc(N)n1)C(=O)O [CAZ, ceftazidime] | 32 | 0.125 | 1 | 1 | 0.5 | 1 | 0.5 | > 32 | > 32 | 0.031 | 0.25 | 0.25 | > 32 | MIC (E. cloacae GN7471; GN7471, Concomitant (CAZ:SM = 1:1), read-out: MIC concomitant): 8 µg/mL; MIC (Str. pyogenes Cook; [15]): 0.004 µg/mL; MIC (M. luteus ATCC9341; ATCC9341, Concomitant (CAZ:SM = 1:1), read-out: MIC concomitant): ≤ 0.002 µg/mL; MIC (P. aeruginosa IFO3451; IFO3451, Concomitant (CAZ:SM = 1:1), read-out: MIC concomitant): 2 µg/mL; MIC (P. aeruginosa TL-2666; TL2666, Concomitant (CAZ:SM = 1:1), read-out: MIC concomitant): 8 µg/mL; MIC (P. aeruginosa TL-2667; TL2667, Concomitant (CAZ:SM = 1:1), read-out: MIC concomitant): 8 µg/mL; MIC (P. vulgaris GN7919; GN7919, Concomitant (CAZ:SM = 1:1), read-out: MIC concomitant): 0.5 µg/mL; MIC [1, 15]: 1 µg/mL; MIC (S. epidermidis IAM1296; IAM1296, Concomitant (CAZ:SM = 1:1), read-out: MIC concomitant): 0.031 µg/mL; MIC (K. pneumoniae ATCC10031; ATCC10031, Concomitant (CAZ:SM = 1:1), read-out: MIC concomitant): 0.008 µg/mL; MIC (E. coli ML1410; ML1410, Concomitant (CAZ:SM = 1:1), read-out: MIC concomitant): 0.063 µg/mL; MIC (E. coli NIHJ JC-2; NIHJJC2, Concomitant (CAZ:SM = 1:1), read-out: MIC concomitant): 0.063 µg/mL; MIC (E. faecalis ATCC19433; ATCC19433, Concomitant (CAZ:SM = 1:1), read-out: MIC concomitant): 1 µg/mL
3 | CCN1CCN(C(=O)N[C@@H](C(=O)N[C@@H]2C(=O)N3[C@@H]2SC(C)(C)[C@@H]3C(=O)O)c2ccccc2)C(=O)C1=O [PIPC, piperacillin] | 16 | 0.031 | 0.031 | 4 | 1 | 2 | > 32 | > 32 | 2 | 0.25 | 2 | 0.25 | 2 | MIC (E. cloacae GN7471; GN7471, Concomitant (PIPC:SM = 1:1), read-out: MIC concomitant): 8 µg/mL; MIC (Str. pyogenes Cook; [16]): ≤ 0.002 µg/mL; MIC (M. luteus ATCC9341; ATCC9341, Concomitant (PIPC:SM = 1:1), read-out: MIC concomitant): ≤ 0.002 µg/mL; MIC (P. aeruginosa IFO3451; IFO3451, Concomitant (PIPC:SM = 1:1), read-out: MIC concomitant): 8 µg/mL; MIC (P. aeruginosa TL-2666; TL2666, Concomitant (PIPC:SM = 1:1), read-out: MIC concomitant): 16 µg/mL; MIC (P. aeruginosa TL-2667; TL2667, Concomitant (PIPC:SM = 1:1), read-out: MIC concomitant): 16 µg/mL; MIC (P. vulgaris GN7919; GN7919, Concomitant (PIPC:SM = 1:1), read-out: MIC concomitant): 0.5 µg/mL; MIC [1, 16]: 1 µg/mL; MIC (S. epidermidis IAM1296; IAM1296, Concomitant (PIPC:SM = 1:1), read-out: MIC concomitant): 0.016 µg/mL; MIC (K. pneumoniae ATCC10031; ATCC10031, Concomitant (PIPC:SM = 1:1), read-out: MIC concomitant): 0.016 µg/mL; MIC (E. coli ML1410; ML1410, Concomitant (PIPC:SM = 1:1), read-out: MIC concomitant): 0.125 µg/mL; MIC (E. coli NIHJ JC-2; NIHJJC2, Concomitant (PIPC:SM = 1:1), read-out: MIC concomitant): 0.063 µg/mL; MIC (E. faecalis ATCC19433; ATCC19433, Concomitant (PIPC:SM = 1:1), read-out: MIC concomitant): 0.5 µg/mL
